Columns and labels:
[1] = molecular target: 5-hydroxytryptamine receptor 1B (Homo sapiens) (UniProt P28222); experiment: 5-HT1B Eurofins-Cerep binding assay; parameters: ligand concentration 1 nM; conditions: Compound concentration 10.0 uM
[2] = molecular target: Cannabinoid receptor 1 (Homo sapiens) (UniProt P21554); experiment: CB1 Eurofins-Cerep binding assay; conditions: Compound concentration 10.0 uM
[3] = molecular target: Prostaglandin G/H synthase 1 (Homo sapiens) (UniProt P23219); experiment: Inhibitor of COX-1 in the Eurofins Cerep SafetyScreen44 (BI) by Fluorimetry (Cerep_4173); conditions: Compound concentration 10.0 uM
[4] = molecular target: Prostaglandin G/H synthase 2 (Homo sapiens) (UniProt P35354); experiment: Inhibitor of COX-2 in the Eurofins Cerep SafetyScreen44 (BI) by Fluorimetry (Cerep_4186); conditions: Compound concentration 10.0 uM
[5] = molecular target: Kappa-type opioid receptor (Homo sapiens) (UniProt P41145); experiment: kappa (KOP) Eurofins-Cerep binding assay; conditions: Compound concentration 10.0 uM
Chain of Kappa-type opioid receptor (Homo sapiens) (P41145 whole entry): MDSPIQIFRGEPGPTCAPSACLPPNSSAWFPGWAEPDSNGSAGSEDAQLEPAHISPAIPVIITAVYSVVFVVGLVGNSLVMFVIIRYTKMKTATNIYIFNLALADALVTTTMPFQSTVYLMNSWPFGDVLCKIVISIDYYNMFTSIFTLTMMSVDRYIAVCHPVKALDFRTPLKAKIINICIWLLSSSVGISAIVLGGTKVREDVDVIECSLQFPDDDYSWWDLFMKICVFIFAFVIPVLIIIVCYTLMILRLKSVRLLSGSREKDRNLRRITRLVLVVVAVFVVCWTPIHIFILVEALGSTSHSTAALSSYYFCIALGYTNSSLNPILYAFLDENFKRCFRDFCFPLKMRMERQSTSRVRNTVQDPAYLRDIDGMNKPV

[6] = molecular target: 5-hydroxytryptamine receptor 1A (Homo sapiens) (UniProt P08908); experiment: 5-HT1A Eurofins-Cerep binding assay; parameters: ligand concentration 0.5 nM; conditions: Compound concentration 10.0 uM
Chain of 5-hydroxytryptamine receptor 1A (Homo sapiens) (P08908 whole entry): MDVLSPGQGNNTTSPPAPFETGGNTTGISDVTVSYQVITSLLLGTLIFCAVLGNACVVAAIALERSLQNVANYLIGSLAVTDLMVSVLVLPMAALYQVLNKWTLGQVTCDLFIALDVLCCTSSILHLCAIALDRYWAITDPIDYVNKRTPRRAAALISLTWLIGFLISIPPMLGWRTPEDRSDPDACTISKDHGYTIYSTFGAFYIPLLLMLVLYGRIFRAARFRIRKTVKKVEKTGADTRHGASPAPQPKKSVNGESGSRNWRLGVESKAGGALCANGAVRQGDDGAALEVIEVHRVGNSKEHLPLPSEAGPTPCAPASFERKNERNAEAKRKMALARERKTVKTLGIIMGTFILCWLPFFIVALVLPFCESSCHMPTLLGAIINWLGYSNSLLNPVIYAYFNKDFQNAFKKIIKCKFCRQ

[7] = molecular target: 5-hydroxytryptamine receptor 2A (Homo sapiens) (UniProt P28223); experiment: Agonist activity in the Eurofins Cerep SafetyScreen44 (BI) against 5HT2AH_AGON by Scintillation counting (Cerep_471); conditions: Compound concentration 10.0 uM
[8] = molecular target: 5-hydroxytryptamine receptor 2B (Homo sapiens) (UniProt P41595); experiment: 5-HT2B Eurofins-Cerep binding assay; conditions: Compound concentration 10.0 uM
[9] = molecular target: 5-hydroxytryptamine receptor 3A (Homo sapiens) (UniProt P46098); experiment: 5-HT3 Eurofins-Cerep binding assay; parameters: ligand concentration 0.5 nM; conditions: Compound concentration 10.0 uM
Chain of 5-hydroxytryptamine receptor 3A (Homo sapiens) (P46098 whole entry): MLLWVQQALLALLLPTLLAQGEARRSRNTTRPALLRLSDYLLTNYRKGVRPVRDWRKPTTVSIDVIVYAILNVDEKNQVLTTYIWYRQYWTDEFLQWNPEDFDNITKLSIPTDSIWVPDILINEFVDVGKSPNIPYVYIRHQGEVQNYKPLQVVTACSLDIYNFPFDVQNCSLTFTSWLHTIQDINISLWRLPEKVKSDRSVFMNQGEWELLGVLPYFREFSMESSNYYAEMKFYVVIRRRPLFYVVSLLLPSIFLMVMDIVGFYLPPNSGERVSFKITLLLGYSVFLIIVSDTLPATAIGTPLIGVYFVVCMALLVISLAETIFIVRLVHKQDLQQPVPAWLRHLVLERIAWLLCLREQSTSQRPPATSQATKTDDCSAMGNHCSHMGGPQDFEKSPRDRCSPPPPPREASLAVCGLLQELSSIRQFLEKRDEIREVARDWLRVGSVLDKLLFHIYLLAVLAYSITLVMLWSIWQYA

[10] = molecular target: Adenosine receptor A2a (Homo sapiens) (UniProt P29274); experiment: A2A Eurofins-Cerep binding assay; parameters: ligand concentration 6 nM; conditions: Compound concentration 10.0 uM
[11] = molecular target: Angiotensin-converting enzyme (Homo sapiens) (UniProt P12821); experiment: Activity against ACE(HU_AMTCH400) in the Eurofins Cerep SafetyScreen44 (BI) by Photometry (Cerep_3441); conditions: Compound concentration 10.0 uM
[12] = molecular target: Alpha-1A adrenergic receptor (Homo sapiens) (UniProt P35348); experiment: Agonist activity in the Eurofins Cerep SafetyScreen44 (BI) against ALPHA1AH_ANTAG by Scintillation counting (Cerep_2338); conditions: Compound concentration 10.0 uM
[13] = molecular target: Alpha-2A adrenergic receptor (Homo sapiens) (UniProt P08913); experiment: Inhibitor of ALPHA2A/HU in the Eurofins Cerep SafetyScreen44 (BI) by Radioactive Assay (Cerep_13); conditions: Compound concentration 10.0 uM
Chain of Alpha-2A adrenergic receptor (Homo sapiens) (P08913 whole entry): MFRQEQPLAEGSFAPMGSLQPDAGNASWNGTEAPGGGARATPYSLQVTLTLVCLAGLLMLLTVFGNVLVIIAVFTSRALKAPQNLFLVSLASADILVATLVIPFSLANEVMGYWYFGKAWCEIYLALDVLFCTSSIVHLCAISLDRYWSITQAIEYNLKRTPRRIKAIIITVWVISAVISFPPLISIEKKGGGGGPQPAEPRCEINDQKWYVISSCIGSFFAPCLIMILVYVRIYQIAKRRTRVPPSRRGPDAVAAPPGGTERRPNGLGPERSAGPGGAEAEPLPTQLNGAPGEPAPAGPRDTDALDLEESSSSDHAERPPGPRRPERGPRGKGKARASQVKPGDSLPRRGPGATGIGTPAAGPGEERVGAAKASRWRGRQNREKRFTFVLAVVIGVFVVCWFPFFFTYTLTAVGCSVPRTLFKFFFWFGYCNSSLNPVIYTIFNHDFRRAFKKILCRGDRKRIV

[14] = molecular target: Beta-1 adrenergic receptor (Homo sapiens) (UniProt P08588); experiment: beta 1 Eurofins-Cerep binding assay; parameters: ligand concentration 0.3 nM; conditions: Compound concentration 10.0 uM
[15] = molecular target: Beta-2 adrenergic receptor (Homo sapiens) (UniProt P07550); experiment: beta 2 Eurofins-Cerep binding assay; conditions: Compound concentration 10.0 uM
Rattus norvegicus [16] = species on record: Rattus norvegicus; experiment: Activity against BZD/CENTR/R in the Eurofins Cerep SafetyScreen44 (BI) by Radioactive Assay (Cerep_28); assay type: protein-complex assay; conditions: Compound concentration 10.0 uM
[17] = molecular target: L-type calcium channel (dihydropyridine site), Cav1.2 alpha-1C (Rattus norvegicus, UniProt P22002); experiment: Inhibitor of CA+/DHPSI/R in the Eurofins Cerep SafetyScreen44 (BI) by Radioactive Assay (Cerep_161); assay type: protein assay; parameters: scale not given: the % may be the effect or the level left; conditions: rat brain, probe [3H](+)PN200-110, compound concentration 10 uM, read-out: % Ctrl
[18] = molecular target: Cannabinoid receptor 2 (Homo sapiens) (UniProt P34972); experiment: Activity against CB2/PERIPH/H in the Eurofins Cerep SafetyScreen44 (BI) by Radioactive Assay (Cerep_37); conditions: Compound concentration 10.0 uM
Chain of Cannabinoid receptor 2 (Homo sapiens) (P34972 whole entry): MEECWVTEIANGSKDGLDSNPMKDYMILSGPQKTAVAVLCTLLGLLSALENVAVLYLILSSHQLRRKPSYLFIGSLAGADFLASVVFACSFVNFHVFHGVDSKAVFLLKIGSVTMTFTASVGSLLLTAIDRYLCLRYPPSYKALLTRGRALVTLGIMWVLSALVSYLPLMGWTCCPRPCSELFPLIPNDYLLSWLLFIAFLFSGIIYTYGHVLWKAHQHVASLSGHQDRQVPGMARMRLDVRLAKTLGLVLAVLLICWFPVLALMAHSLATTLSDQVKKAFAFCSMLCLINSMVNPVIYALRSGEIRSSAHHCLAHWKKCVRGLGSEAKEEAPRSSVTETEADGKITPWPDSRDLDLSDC

[19] = molecular target: Cholecystokinin receptor type A (Homo sapiens) (UniProt P32238); experiment: CCK1 (CCKA) Eurofins-Cerep binding assay; parameters: ligand concentration 0.08 nM; conditions: Compound concentration 10.0 uM
[20] = molecular target: D(1A) dopamine receptor (Homo sapiens) (UniProt P21728); experiment: D1 Eurofins-Cerep binding assay; parameters: ligand concentration 0.3 nM; conditions: Compound concentration 10.0 uM
[21] = molecular target: D(2) dopamine receptor (Homo sapiens) (UniProt P14416); experiment: Agonist activity in the Eurofins Cerep SafetyScreen44 (BI) against D2SH_AGON by Scintillation counting (Cerep_1322); conditions: Compound concentration 10.0 uM
[22] = molecular target: Sodium-dependent dopamine transporter (Homo sapiens) (UniProt Q01959); experiment: dopamine transporter Eurofins-Cerep binding assay; conditions: Compound concentration 10.0 uM
[23] = molecular target: Delta-type opioid receptor (Homo sapiens) (UniProt P41143); experiment: delta (DOP) Eurofins-Cerep binding assay; parameters: ligand concentration 0.5 nM; conditions: Compound concentration 10.0 uM
[24] = molecular target: Endothelin-1 receptor (Homo sapiens) (UniProt P25101); experiment: ETA Eurofins-Cerep binding assay; parameters: ligand concentration 0.03 nM; conditions: Compound concentration 10.0 uM
[25] = molecular target: Glucocorticoid receptor (Homo sapiens) (UniProt P04150); experiment: GR Eurofins-Cerep binding assay; conditions: Compound concentration 10.0 uM
[26] = molecular target: Histamine H1 receptor (Homo sapiens) (UniProt P35367); experiment: H1 Eurofins-Cerep binding assay; parameters: ligand concentration 1 nM; conditions: Compound concentration 10.0 uM
Chain of Histamine H1 receptor (Homo sapiens) (P35367 whole entry): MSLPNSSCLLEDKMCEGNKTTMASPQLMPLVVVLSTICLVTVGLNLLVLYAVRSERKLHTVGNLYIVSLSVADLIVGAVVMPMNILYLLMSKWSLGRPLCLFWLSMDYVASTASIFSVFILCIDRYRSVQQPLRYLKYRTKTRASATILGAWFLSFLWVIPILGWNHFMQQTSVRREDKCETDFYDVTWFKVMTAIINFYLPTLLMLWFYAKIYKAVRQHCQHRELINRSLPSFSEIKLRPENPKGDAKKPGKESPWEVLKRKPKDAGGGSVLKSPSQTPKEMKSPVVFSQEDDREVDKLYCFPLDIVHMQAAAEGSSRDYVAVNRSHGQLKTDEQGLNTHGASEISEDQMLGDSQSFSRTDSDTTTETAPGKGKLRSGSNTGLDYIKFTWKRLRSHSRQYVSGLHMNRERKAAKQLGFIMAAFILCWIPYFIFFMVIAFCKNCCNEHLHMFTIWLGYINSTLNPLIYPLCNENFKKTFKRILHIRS

[27] = molecular target: Histamine H2 receptor (Homo sapiens) (UniProt P25021); experiment: H2 Eurofins-Cerep binding assay; parameters: ligand concentration 0.075 nM; conditions: Compound concentration 10.0 uM
hERG (KCNH2) = hERG (KCNH2) (Homo sapiens, UniProt Q12809); experiment: Inhibitor of HERG_DOFETILIDE in the Eurofins Cerep SafetyScreen44 (BI) by Scintillation counting (Cerep_4094); parameters: scale not given: the % may be the effect or the level left; conditions: probe [3H]dofetilide, compound concentration 10 uM, read-out: % Ctrl
Rattus norvegicus [28] = species on record: Rattus norvegicus; experiment: KV channel Eurofins-Cerep binding assay; parameters: ligand concentration 0.01 nM; conditions: Compound concentration 10.0 uM
[29] = molecular target: Tyrosine-protein kinase Lck (Homo sapiens) (UniProt P06239); experiment: Inhibitor of LCK_CE in the Eurofins Cerep SafetyScreen44 (BI) by lanthanide chelation excitation (Cerep_2906); conditions: Compound concentration 10.0 uM
[30] = molecular target: Muscarinic acetylcholine receptor M1 (Homo sapiens) (UniProt P11229); experiment: M1 Eurofins-Cerep binding assay; parameters: ligand concentration 2 nM; conditions: Compound concentration 10.0 uM
Chain of Muscarinic acetylcholine receptor M1 (Homo sapiens) (P11229 whole entry): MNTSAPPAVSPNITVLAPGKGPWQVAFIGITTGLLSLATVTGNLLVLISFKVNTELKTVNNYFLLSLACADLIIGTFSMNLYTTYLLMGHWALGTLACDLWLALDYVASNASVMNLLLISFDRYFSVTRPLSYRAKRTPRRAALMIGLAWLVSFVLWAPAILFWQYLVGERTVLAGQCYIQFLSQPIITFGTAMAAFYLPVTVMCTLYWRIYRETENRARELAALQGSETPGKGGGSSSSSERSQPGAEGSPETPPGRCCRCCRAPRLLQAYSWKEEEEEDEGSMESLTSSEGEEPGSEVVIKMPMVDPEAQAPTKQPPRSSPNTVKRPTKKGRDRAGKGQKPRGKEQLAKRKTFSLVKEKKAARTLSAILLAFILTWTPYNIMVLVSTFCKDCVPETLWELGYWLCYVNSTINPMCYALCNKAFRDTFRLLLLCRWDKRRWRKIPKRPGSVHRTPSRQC

[31] = molecular target: Muscarinic acetylcholine receptor M2 (Homo sapiens) (UniProt P08172); experiment: M2 Eurofins-Cerep binding assay; parameters: ligand concentration 2 nM; conditions: Compound concentration 10.0 uM
[32] = molecular target: Muscarinic acetylcholine receptor M3 (Homo sapiens) (UniProt P20309); experiment: M3 Eurofins-Cerep binding assay; parameters: ligand concentration 0.2 nM; conditions: Compound concentration 10.0 uM
[33] = molecular target: MAO-A (amine oxidase [flavin-containing] A) (Homo sapiens, UniProt P21397); experiment: Agonist activity in the Eurofins Cerep SafetyScreen44 (BI) against MAO-A_ANTAG by Scintillation counting (Cerep_443); parameters: scale not given: the % may be the effect or the level left; conditions: rat; compound concentration 10 uM; target entry is the homologue from another species; read-out: % Ctrl
[34] = molecular target: Mu-type opioid receptor (Homo sapiens) (UniProt P35372); experiment: mu (MOP) Eurofins-Cerep binding assay; parameters: ligand concentration 0.5 nM; conditions: Compound concentration 10.0 uM
[35] = molecular target: Sodium-dependent noradrenaline transporter (Homo sapiens) (UniProt P23975); experiment: norepinephrine transporter Eurofins-Cerep binding assay; parameters: ligand concentration 1 nM; conditions: Compound concentration 10.0 uM
Chain of Sodium-dependent noradrenaline transporter (Homo sapiens) (P23975 whole entry): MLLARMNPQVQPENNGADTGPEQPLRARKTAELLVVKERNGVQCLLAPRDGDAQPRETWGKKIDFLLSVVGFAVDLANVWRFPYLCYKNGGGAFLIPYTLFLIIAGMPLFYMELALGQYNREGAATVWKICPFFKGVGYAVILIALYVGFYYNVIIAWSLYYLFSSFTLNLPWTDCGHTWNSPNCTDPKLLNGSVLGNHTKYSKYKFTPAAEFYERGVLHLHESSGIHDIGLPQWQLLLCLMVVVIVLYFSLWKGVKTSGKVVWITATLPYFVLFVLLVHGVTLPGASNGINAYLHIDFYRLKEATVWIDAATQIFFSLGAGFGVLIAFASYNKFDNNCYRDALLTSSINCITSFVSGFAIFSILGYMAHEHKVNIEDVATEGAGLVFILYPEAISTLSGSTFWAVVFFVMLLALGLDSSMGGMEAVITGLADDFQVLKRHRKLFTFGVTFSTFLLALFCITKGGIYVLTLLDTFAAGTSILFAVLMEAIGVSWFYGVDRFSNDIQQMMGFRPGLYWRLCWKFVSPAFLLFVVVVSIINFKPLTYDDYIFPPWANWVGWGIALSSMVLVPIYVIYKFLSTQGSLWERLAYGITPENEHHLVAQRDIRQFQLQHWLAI

[36] = molecular target: Glutamate NMDA receptor (Rattus norvegicus) (UniProt P35439+Q00959+Q00960+Q00961+Q62645+Q8VHN2+Q9R1M7); experiment: Inhibitor of NMDA/R in the Eurofins Cerep SafetyScreen44 (BI) by Radioactive Assay (Cerep_66); assay type: protein-complex assay; conditions: Compound concentration 10.0 uM
Homo sapiens = species on record: Homo sapiens; experiment: Agonist activity in the Eurofins Cerep SafetyScreen44 (BI) against N_NEURO_A4B2 by Radioligand Binding (Cerep_3029); assay type: protein-complex assay; conditions: Compound concentration 10.0 uM
[37] = molecular target: cGMP-inhibited 3',5'-cyclic phosphodiesterase 3A (Homo sapiens) (UniProt Q14432); experiment: Inhibitor of PDE3A in the Eurofins Cerep SafetyScreen44 (BI) by HTRF-homogeneous time resolved fluoresce (Cerep_4072); conditions: Compound concentration 10.0 uM
[38] = molecular target: 3',5'-cyclic-AMP phosphodiesterase 4D (Homo sapiens) (UniProt Q08499); experiment: Inhibitor of PDE4D2 in the Eurofins Cerep SafetyScreen44 (BI) by Scintillation counting (Cerep_4077); conditions: Compound concentration 10.0 uM
[39] = molecular target: Sodium-dependent serotonin transporter (Homo sapiens) (UniProt P31645); experiment: 5-HT transporter Eurofins-Cerep binding assay; parameters: ligand concentration 2 nM; conditions: Compound concentration 10.0 uM
[40] = molecular target: Vasopressin V1a receptor (Homo sapiens) (UniProt P37288); experiment: V1a Eurofins-Cerep binding assay; parameters: ligand concentration 0.3 nM; conditions: Compound concentration 10.0 uM
B1 bradykinin receptor [41] = molecular target: T1, B1 bradykinin receptor (Homo sapiens, UniProt P46663); experiment: Radioligand binding assay (displacement of kallidin, hBDKRB1 ) at 10 µM ( Non-specific binding is estimated in the presence of 10 µM Des-Arg9- (Leu8)-Bradykinin. Membranes are filtered and washed, the filters are then counted to determine [3H]Kallidin[des-Arg10, Leu9] specifically bound.); parameters: compound concentration 10 uM
T1 sequence (P46663 whole entry): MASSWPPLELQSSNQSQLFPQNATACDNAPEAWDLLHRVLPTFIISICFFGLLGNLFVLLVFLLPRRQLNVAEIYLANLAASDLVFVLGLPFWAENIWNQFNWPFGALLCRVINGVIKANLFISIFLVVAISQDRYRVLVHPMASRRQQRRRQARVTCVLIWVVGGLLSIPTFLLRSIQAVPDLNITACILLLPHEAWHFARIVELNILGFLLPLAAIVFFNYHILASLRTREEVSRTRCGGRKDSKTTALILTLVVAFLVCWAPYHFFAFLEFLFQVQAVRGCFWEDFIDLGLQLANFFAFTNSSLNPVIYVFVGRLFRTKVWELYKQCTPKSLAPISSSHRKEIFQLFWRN

B1 bradykinin receptor [42] = molecular target: T1, B1 bradykinin receptor; experiment: Measurement of intracellular calcium in HEK-cells expressing hBDKRB1 at up to 1 µM ( The compound antagonizes the effects of the specific B1 agonist [Lys-des-Arg9 ]-Bradykinin (10 nM) in a concentration-dependent manner.); assay type: functional, cell-based; parameters: compound concentration < 1 uM
[43] = molecular target: Androgen receptor (Homo sapiens) (UniProt P10275); conditions: Compound concentration 10.0 uM
Chain of Androgen receptor (Homo sapiens) (P10275 whole entry): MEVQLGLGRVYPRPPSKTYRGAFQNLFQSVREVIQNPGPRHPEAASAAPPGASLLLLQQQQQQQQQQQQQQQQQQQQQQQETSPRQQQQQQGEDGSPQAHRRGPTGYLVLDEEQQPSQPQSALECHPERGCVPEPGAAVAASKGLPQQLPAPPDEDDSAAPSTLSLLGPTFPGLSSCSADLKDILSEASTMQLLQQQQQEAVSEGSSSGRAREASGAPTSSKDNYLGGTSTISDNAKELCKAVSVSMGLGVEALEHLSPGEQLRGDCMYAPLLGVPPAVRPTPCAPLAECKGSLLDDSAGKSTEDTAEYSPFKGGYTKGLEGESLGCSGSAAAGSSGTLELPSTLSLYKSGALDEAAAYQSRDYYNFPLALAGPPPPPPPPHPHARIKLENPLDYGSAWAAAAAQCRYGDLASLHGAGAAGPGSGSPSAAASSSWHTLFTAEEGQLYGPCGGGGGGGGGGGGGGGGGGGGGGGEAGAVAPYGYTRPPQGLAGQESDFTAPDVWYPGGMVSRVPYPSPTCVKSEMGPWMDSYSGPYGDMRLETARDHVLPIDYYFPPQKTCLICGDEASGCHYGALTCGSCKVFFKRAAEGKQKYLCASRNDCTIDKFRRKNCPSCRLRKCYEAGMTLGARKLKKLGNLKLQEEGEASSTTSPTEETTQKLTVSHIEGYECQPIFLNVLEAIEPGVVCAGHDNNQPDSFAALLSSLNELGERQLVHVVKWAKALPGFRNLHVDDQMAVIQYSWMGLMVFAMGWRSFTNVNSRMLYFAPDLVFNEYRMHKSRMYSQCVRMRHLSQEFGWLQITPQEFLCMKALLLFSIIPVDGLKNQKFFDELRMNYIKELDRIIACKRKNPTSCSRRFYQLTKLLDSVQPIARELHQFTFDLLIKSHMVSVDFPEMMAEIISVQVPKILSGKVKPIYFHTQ
Description: Activity against ANDROGEN/H in the Eurofins Cerep SafetyScreen44 (BI) by Radioactive Assay (Cerep_933)

Chain of 5-hydroxytryptamine receptor 1B (Homo sapiens) (P28222 whole entry): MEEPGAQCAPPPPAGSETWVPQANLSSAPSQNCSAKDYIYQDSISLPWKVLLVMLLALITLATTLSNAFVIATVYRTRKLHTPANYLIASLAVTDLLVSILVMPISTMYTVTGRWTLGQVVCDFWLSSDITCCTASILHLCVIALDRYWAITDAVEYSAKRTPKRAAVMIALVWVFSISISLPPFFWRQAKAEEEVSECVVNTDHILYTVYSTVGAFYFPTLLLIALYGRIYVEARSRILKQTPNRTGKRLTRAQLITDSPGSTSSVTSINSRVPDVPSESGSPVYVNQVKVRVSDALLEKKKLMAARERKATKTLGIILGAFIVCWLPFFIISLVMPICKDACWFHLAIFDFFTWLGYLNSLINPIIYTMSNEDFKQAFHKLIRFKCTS

COc1cc(C)c(S(=O)(=O)N(C)CCC(=O)N[C@H]2CC[C@@H](N3CCC4CN(C)CC4C3)CC2)c(C)c1 (stereo not given in full)
residual activity [1]: 92% | residual activity [2]: 137% | residual activity [3]: 85% | residual activity [4]: 98% | residual activity [5]: 42% | residual activity [6]: 99% | residual activity [7]: 108% | residual activity [8]: 81% | residual activity [9]: 93% | residual activity [10]: 124% | residual activity [11]: 97% | residual activity [12]: 91% | residual activity [13]: 90% | residual activity [14]: 97% | residual activity [15]: 101% | residual activity (Rattus norvegicus [16]): 105% | activity at 10 µM [17]: 120% (not active) | residual activity [18]: 106% | residual activity [19]: 85% | residual activity [20]: 94% | residual activity [21]: 97% | residual activity [22]: 98% | residual activity [23]: 87% | residual activity [24]: 109% | residual activity [25]: 102% | residual activity [26]: 104% | residual activity [27]: 113% | activity at 10 µM (hERG (KCNH2)): 63% (not active) | residual activity (Rattus norvegicus [28]): 98% | residual activity [29]: 94% | residual activity [30]: 89% | residual activity [31]: 67% | residual activity [32]: 92% | activity at 10 µM [33]: 106% (not active) | residual activity [34]: 96% | residual activity [35]: 93% | residual activity [36]: 112% | residual activity (Homo sapiens): 98% | residual activity [37]: 105% | residual activity [38]: 104% | residual activity [39]: 103% | residual activity [40]: 87% | Ki (B1 bradykinin receptor [41]): 431 nM (not active) | IC50 (B1 bradykinin receptor [42]): 699 nM (not active) | residual activity [43]: 90%
